# Laboratory results reported in ChEMBL document CHEMBL1773043, “Platensimycin and platencin congeners from Streptomyces platensis” (J Nat Prod, 2011).
# Active and inactive are the calls of the source. The rule behind the calls is not given here.
# Tested on: Escherichia coli
# Assay: Antibacterial activity against Escherichia coli at 64 ug/ml after 20 hrs
# Assay type: functional, organism-based
row,SMILES,Activity
1,C[C@]12O[C@H]3CC1C[C@@]1(C=C(O)C(=O)[C@@](C)(CCC(=O)Nc4c(O)ccc(C(=O)O)c4O)C31)C2O (some centres not stated),inactive
2,COC(=O)c1ccc(O)c(NC(=O)CC[C@]2(C)C(=O)C=CC34CC5CC(OC5(CO)C3)C42)c1O (some centres not stated) [PLATENSIMYCIN A4 METHYL ESTER],inactive
3,C=C1CC23C=CC(=O)[C@@](C)(CCC(=O)Nc4c(O)ccc(C(=O)OC)c4O)C2CC1[C@@H](O)C3 (some centres not stated),inactive
4,COC(=O)CC[C@]1(C)C(=O)C=C[C@]23CC4C[C@H](O[C@]4(C)C2)C31 (some centres not stated),inactive
5,C[C@@]12C[C@@]34C=CC(=O)[C@@](C)(CCC(=O)O)C3[C@H](CC1C4)O2 (some centres not stated),inactive

# Tested on: Streptococcus pneumoniae
# Assay: Antibacterial activity against Streptococcus pneumoniae at 64 ug/ml after 20 hrs
# Assay type: functional, organism-based
row,SMILES,Activity
1,C[C@]12O[C@H]3CC1C[C@@]1(C=C(O)C(=O)[C@@](C)(CCC(=O)Nc4c(O)ccc(C(=O)O)c4O)C31)C2O (some centres not stated),inactive
2,COC(=O)c1ccc(O)c(NC(=O)CC[C@]2(C)C(=O)C=CC34CC5CC(OC5(CO)C3)C42)c1O (some centres not stated) [PLATENSIMYCIN A4 METHYL ESTER],inactive
3,C=C1CC23C=CC(=O)[C@@](C)(CCC(=O)Nc4c(O)ccc(C(=O)OC)c4O)C2CC1[C@@H](O)C3 (some centres not stated),inactive
4,COC(=O)CC[C@]1(C)C(=O)C=C[C@]23CC4C[C@H](O[C@]4(C)C2)C31 (some centres not stated),inactive
5,C[C@@]12C[C@@]34C=CC(=O)[C@@](C)(CCC(=O)O)C3[C@H](CC1C4)O2 (some centres not stated),inactive

# Tested on: Enterococcus faecalis
# Assay: Antibacterial activity against Enterococcus faecalis at 64 ug/ml after 20 hrs
# Assay type: functional, organism-based
row,SMILES,Activity
1,C[C@]12O[C@H]3CC1C[C@@]1(C=C(O)C(=O)[C@@](C)(CCC(=O)Nc4c(O)ccc(C(=O)O)c4O)C31)C2O (some centres not stated),inactive
2,COC(=O)c1ccc(O)c(NC(=O)CC[C@]2(C)C(=O)C=CC34CC5CC(OC5(CO)C3)C42)c1O (some centres not stated) [PLATENSIMYCIN A4 METHYL ESTER],inactive
3,C=C1CC23C=CC(=O)[C@@](C)(CCC(=O)Nc4c(O)ccc(C(=O)OC)c4O)C2CC1[C@@H](O)C3 (some centres not stated),inactive
4,COC(=O)CC[C@]1(C)C(=O)C=C[C@]23CC4C[C@H](O[C@]4(C)C2)C31 (some centres not stated),inactive
5,C[C@@]12C[C@@]34C=CC(=O)[C@@](C)(CCC(=O)O)C3[C@H](CC1C4)O2 (some centres not stated),inactive

# Tested on: Enterococcus faecium
# Assay: Antibacterial activity against Enterococcus faecium at 64 ug/ml after 20 hrs
# Assay type: functional, organism-based
row,SMILES,Activity
1,C[C@]12O[C@H]3CC1C[C@@]1(C=C(O)C(=O)[C@@](C)(CCC(=O)Nc4c(O)ccc(C(=O)O)c4O)C31)C2O (some centres not stated),inactive
2,COC(=O)c1ccc(O)c(NC(=O)CC[C@]2(C)C(=O)C=CC34CC5CC(OC5(CO)C3)C42)c1O (some centres not stated) [PLATENSIMYCIN A4 METHYL ESTER],inactive
3,C=C1CC23C=CC(=O)[C@@](C)(CCC(=O)Nc4c(O)ccc(C(=O)OC)c4O)C2CC1[C@@H](O)C3 (some centres not stated),inactive
4,COC(=O)CC[C@]1(C)C(=O)C=C[C@]23CC4C[C@H](O[C@]4(C)C2)C31 (some centres not stated),inactive
5,C[C@@]12C[C@@]34C=CC(=O)[C@@](C)(CCC(=O)O)C3[C@H](CC1C4)O2 (some centres not stated),inactive

# Target: T1, 3-oxoacyl-[acyl-carrier-protein] synthase 2 (Staphylococcus aureus) (UniProt Q5TKS0)
# T1 sequence (whole entry): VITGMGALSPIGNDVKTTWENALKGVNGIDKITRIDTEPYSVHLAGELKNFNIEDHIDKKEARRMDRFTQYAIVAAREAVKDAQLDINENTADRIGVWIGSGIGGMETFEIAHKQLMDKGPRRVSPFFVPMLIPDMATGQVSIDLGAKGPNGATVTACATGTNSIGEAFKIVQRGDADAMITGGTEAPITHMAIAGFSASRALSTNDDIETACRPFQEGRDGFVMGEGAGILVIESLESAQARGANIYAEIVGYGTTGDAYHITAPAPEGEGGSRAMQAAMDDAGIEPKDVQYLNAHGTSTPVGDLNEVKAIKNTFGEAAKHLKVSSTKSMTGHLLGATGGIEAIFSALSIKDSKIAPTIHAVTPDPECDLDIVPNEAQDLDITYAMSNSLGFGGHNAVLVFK
# Assay: (§1) Inhibition of Staphylococcus aureus […] assessed as [2-14C]-malonyl CoA incorporation after 90 mins by cell free-based scintillation counting
row,SMILES,inhibition
1,COC(=O)c1ccc(O)c(NC(=O)CC[C@]2(C)C(=O)C=CC34CC5CC(OC5(CO)C3)C42)c1O (some centres not stated) [PLATENSIMYCIN A4 METHYL ESTER],inactive
2,C=C1CC23C=CC(=O)[C@@](C)(CCC(=O)Nc4c(O)ccc(C(=O)OC)c4O)C2CC1[C@@H](O)C3 (some centres not stated),inactive
3,COC(=O)CC[C@]1(C)C(=O)C=C[C@]23CC4C[C@H](O[C@]4(C)C2)C31 (some centres not stated),inactive
4,C[C@@]12C[C@@]34C=CC(=O)[C@@](C)(CCC(=O)O)C3[C@H](CC1C4)O2 (some centres not stated),inactive

# Target: T2, 3-oxoacyl-[acyl-carrier-protein] synthase 2 (Staphylococcus aureus, UniProt Q5TKS0)
# T2 sequence (Q5TKS0 whole entry): T1 sequence (whole entry)
# Assay: as §1
row,SMILES,IC50
1,C[C@]12O[C@H]3CC1C[C@@]1(C=C(O)C(=O)[C@@](C)(CCC(=O)Nc4c(O)ccc(C(=O)O)c4O)C31)C2O (some centres not stated),33.8 µM

# Tested on: Staphylococcus aureus
# Assay: Antibacterial activity against Staphylococcus aureus at 64 ug/ml after 20 hrs
# Assay type: functional, organism-based
row,SMILES,Activity
1,C[C@]12O[C@H]3CC1C[C@@]1(C=C(O)C(=O)[C@@](C)(CCC(=O)Nc4c(O)ccc(C(=O)O)c4O)C31)C2O (some centres not stated),inactive
2,COC(=O)c1ccc(O)c(NC(=O)CC[C@]2(C)C(=O)C=CC34CC5CC(OC5(CO)C3)C42)c1O (some centres not stated) [PLATENSIMYCIN A4 METHYL ESTER],inactive
3,C=C1CC23C=CC(=O)[C@@](C)(CCC(=O)Nc4c(O)ccc(C(=O)OC)c4O)C2CC1[C@@H](O)C3 (some centres not stated),inactive
4,COC(=O)CC[C@]1(C)C(=O)C=C[C@]23CC4C[C@H](O[C@]4(C)C2)C31 (some centres not stated),inactive
5,C[C@@]12C[C@@]34C=CC(=O)[C@@](C)(CCC(=O)O)C3[C@H](CC1C4)O2 (some centres not stated),inactive

# Tested on: Haemophilus influenzae
# Assay: Antibacterial activity against Haemophilus influenzae at 64 ug/ml after 20 hrs
# Assay type: functional, organism-based
row,SMILES,Activity
1,C[C@]12O[C@H]3CC1C[C@@]1(C=C(O)C(=O)[C@@](C)(CCC(=O)Nc4c(O)ccc(C(=O)O)c4O)C31)C2O (some centres not stated),inactive
2,COC(=O)c1ccc(O)c(NC(=O)CC[C@]2(C)C(=O)C=CC34CC5CC(OC5(CO)C3)C42)c1O (some centres not stated) [PLATENSIMYCIN A4 METHYL ESTER],inactive
3,C=C1CC23C=CC(=O)[C@@](C)(CCC(=O)Nc4c(O)ccc(C(=O)OC)c4O)C2CC1[C@@H](O)C3 (some centres not stated),inactive
4,COC(=O)CC[C@]1(C)C(=O)C=C[C@]23CC4C[C@H](O[C@]4(C)C2)C31 (some centres not stated),inactive
5,C[C@@]12C[C@@]34C=CC(=O)[C@@](C)(CCC(=O)O)C3[C@H](CC1C4)O2 (some centres not stated),inactive

# Tested on: Staphylococcus aureus
# Assay: Antibacterial activity against Staphylococcus aureus RN450 expressing S1-1941 plasmid carrying antisense FabF2p RNA assessed as 5 mm differential zone clearance measured as minimum concentration after 18 hrs
# Assay type: functional
row,SMILES,Activity
1,C[C@]12O[C@H]3CC1C[C@@]1(C=C(O)C(=O)[C@@](C)(CCC(=O)Nc4c(O)ccc(C(=O)O)c4O)C31)C2O (some centres not stated),<20 µg/mL
2,COC(=O)c1ccc(O)c(NC(=O)CC[C@]2(C)C(=O)C=CC34CC5CC(OC5(CO)C3)C42)c1O (some centres not stated) [PLATENSIMYCIN A4 METHYL ESTER],100 µg/mL
